# Results published in patent US9695155B2, “Herbicidal substituted pyrimidinyloxy benzene compounds” (E. I. DU PONT DE NEMOURS AND COMPANY, priority 2013, dated 2017).
# Legend:
# canarygrass [1] = assay: Test D preemergence; assay type: in vivo, Phalaris minor; conditions: Phalaris minor, pre-emergence, scale 0-100, read-out: Plant response rating, Canarygrass
# How it was run: (§1)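 Solvent/surfactant formulations are sprayed pre (silt loam) or post (1–4 leaf plants, 2–18 cm). Plants stay 7–21 days in controlled conditions before a visual 0–100 score is given.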
# kochia = assay: Test D preemergence; assay type: in vivo, Kochia scoparia; conditions: Bassia scoparia, pre-emergence, scale 0-100, read-out: Plant response rating, Kochia
# How it was run: as §1
# wild radish = assay: Test D preemergence; assay type: in vivo, Raphanus raphanistrum; conditions: Raphanus raphanistrum, pre-emergence
# How it was run: as §1
# canarygrass [2] = assay: Test D postemergence; assay type: in vivo, Phalaris minor; conditions: Phalaris minor, post-emergence, scale 0 to 100 (0 no effect, 100 complete control), read-out: Plant response rating, Canarygrass
# How it was run: as §1
# chickweed = assay: Test D postemergence; assay type: in vivo, Stellaria media; conditions: Stellaria media, post-emergence, scale 0 to 100 (0 no effect, 100 complete control), read-out: Plant response rating, Chickweed
# How it was run: as §1
# green foxtail = assay: Test D postemergence; assay type: in vivo, Setaria viridis; conditions: Setaria viridis, post-emergence, scale 0 to 100 (0 no effect, 100 complete control), read-out: Plant response rating, Foxtail, Green
# How it was run: as §1
# lambsquarters = assay: Test D postemergence; assay type: in vivo, Chenopodium album; conditions: Chenopodium album, post-emergence, scale 0 to 100 (0 no effect, 100 complete control), read-out: Plant response rating, Lambsquarters
# How it was run: as §1
# oilseed rape = assay: Test D postemergence; assay type: in vivo, Brassica napus; conditions: Brassica napus, post-emergence, scale 0 to 100 (0 no effect, 100 complete control), read-out: Plant response rating, Oilseed Rape
# How it was run: as §1
# pigweed = assay: Test D postemergence; assay type: in vivo, Amaranthus retroflexus; conditions: Amaranthus retroflexus, post-emergence, scale 0 to 100 (0 no effect, 100 complete control), read-out: Plant response rating, Pigweed
# How it was run: as §1
# wild buckwheat = assay: Test D postemergence; assay type: in vivo, Polygonum convolvulus; conditions: Fallopia convolvulus, post-emergence, Postemergence, scale 0 to 100 (0 no effect, 100 complete control), read-out: Plant response rating, Buckwheat, Wild
# How it was run: as §1
# corn = assay: Test E postemergence; assay type: in vivo, Zea mays; conditions: Zea mays, post-emergence
# How it was run: (§2)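 Compound in a non-phytotoxic solvent mixture with surfactant was applied preemergence to seeds in silt loam soil, or postemergence to plants 2 to 18 cm tall grown in peat-based potting medium. Plants were kept in a greenhouse for 14 to 21 days, then rated visually against untreated controls on a 0 (no effect) to 100 (complete control) scale.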
# arrowleaf sida = assay: Test E postemergence; assay type: in vivo, Sida rhombifolia; conditions: Sida rhombifolia, post-emergence, read-out: Plant response rating, Arrowleaf Sida
# How it was run: as §2
# dayflower = assay: Test E postemergence; assay type: in vivo, Commelina virginica; conditions: Commelina virginica, post-emergence, read-out: Plant response rating, Dayflower, VA
# How it was run: as §2
# [3] = Postemergence, 31 g ai/ha, scale 0 to 100
# [4] = Postemergence, 62 g ai/ha, scale 0 to 100
# [5] = Postemergence, 125 g ai/ha, scale 0 to 100
# [6] = Postemergence, 250 g ai/ha, scale 0 to 100
# [7] = postemergence, 16 g ai/ha, scale 0 to 100, 0 no effect, 100 complete control
smiles,measurement,setting,value
"N#Cc1cccc(Oc2ncc(Cl)cn2)c1-n1cc(C(F)(F)F)cn1 [Compound 58, 3-[(5-chloro-2-pyrimidinyl)oxy]-2-[4-(trifluoromethyl)-1H-pyrazol-1-yl]benzonitrile]",pest or weed control at 31 g/ha,canarygrass [1]; 31 g ai/ha,20%
same,pest or weed control at 62 g/ha,canarygrass [1]; 62 g ai/ha,55%
same,pest or weed control at 125 g/ha,canarygrass [1]; 125 g ai/ha,100%
same,pest or weed control at 250 g/ha,canarygrass [1]; 250 g ai/ha,100%
same,pest or weed control at 31 g/ha,kochia; 31 g ai/ha,95%
same,pest or weed control at 62 g/ha,kochia; 62 g ai/ha,95%
same,pest or weed control at 125 g/ha,kochia; 125 g ai/ha,95%
same,pest or weed control at 250 g/ha,kochia; 250 g ai/ha,95%
same,pest or weed control at 31 g/ha,"wild radish; 31 g ai/ha, scale 0 (no effect) to 100 (complete control), read-out: Plant response rating, Radish, Wild",100%
same,pest or weed control at 62 g/ha,"wild radish; 62 g ai/ha, scale 0-100, read-out: Plant response rating, Radish, Wild",100%
same,pest or weed control at 125 g/ha,"wild radish; 125 g ai/ha, scale 0-100, read-out: Plant response rating, Radish, Wild",100%
same,pest or weed control at 250 g/ha,"wild radish; 250 g ai/ha, scale 0-100, read-out: Plant response rating, Radish, Wild",100%
same,pest or weed control at 31 g/ha,canarygrass [2]; 31 g ai/ha,35%
same,pest or weed control at 62 g/ha,canarygrass [2]; 62 g ai/ha,40%
same,pest or weed control at 125 g/ha,canarygrass [2]; 125 g ai/ha,50%
same,pest or weed control at 250 g/ha,canarygrass [2]; 250 g ai/ha,70%
same,pest or weed control at 31 g/ha,chickweed; 31 g ai/ha,70%
same,pest or weed control at 62 g/ha,chickweed; 62 g ai/ha,90%
same,pest or weed control at 125 g/ha,chickweed; 125 g ai/ha,100%
same,pest or weed control at 250 g/ha,chickweed; 250 g ai/ha,100%
same,pest or weed control at 31 g/ha,green foxtail; 31 g ai/ha,20%
same,pest or weed control at 62 g/ha,green foxtail; 62 g ai/ha,40%
same,pest or weed control at 125 g/ha,green foxtail; 125 g ai/ha,65%
same,pest or weed control at 250 g/ha,green foxtail; 250 g ai/ha,80%
same,pest or weed control at 31 g/ha,lambsquarters; 31 g ai/ha,75%
same,pest or weed control at 62 g/ha,lambsquarters; 62 g ai/ha,90%
same,pest or weed control at 125 g/ha,lambsquarters; 125 g ai/ha,95%
same,pest or weed control at 250 g/ha,lambsquarters; 250 g ai/ha,90%
same,plant injury at 31 g/ha,oilseed rape; 31 g ai/ha,55%
same,plant injury at 62 g/ha,oilseed rape; 62 g ai/ha,85%
same,plant injury at 125 g/ha,oilseed rape; 125 g ai/ha,95%
same,plant injury at 250 g/ha,oilseed rape; 250 g ai/ha,95%
same,pest or weed control at 31 g/ha,pigweed; 31 g ai/ha,90%
same,pest or weed control at 62 g/ha,pigweed; 62 g ai/ha,100%
same,pest or weed control at 125 g/ha,pigweed; 125 g ai/ha,100%
same,pest or weed control at 250 g/ha,pigweed; 250 g ai/ha,100%
same,pest or weed control at 31 g/ha,wild buckwheat; 31 g ai/ha,90%
same,pest or weed control at 62 g/ha,wild buckwheat; 62 g ai/ha,100%
same,pest or weed control at 125 g/ha,wild buckwheat; 125 g ai/ha,100%
same,pest or weed control at 250 g/ha,wild buckwheat; 250 g ai/ha,100%
same,"corn plant response (injury) rating, 0-100 at 31 g/ha",corn; [3],10%
same,"corn plant response (injury) rating, 0-100 at 62 g/ha",corn; [4],10%
same,"corn plant response (injury) rating, 0-100 at 125 g/ha",corn; [5],10%
same,"corn plant response (injury) rating, 0-100 at 250 g/ha",corn; [6],15%
same,"corn plant response (injury) rating, 0-100 at 16 g/ha",corn; [7],5%
same,pest or weed control at 31 g/ha,arrowleaf sida; [3],80%
same,pest or weed control at 62 g/ha,arrowleaf sida; [4],90%
same,pest or weed control at 125 g/ha,arrowleaf sida; [5],95%
same,pest or weed control at 250 g/ha,arrowleaf sida; [6],98%
same,pest or weed control at 16 g/ha,arrowleaf sida; [7],70%
same,pest or weed control at 31 g/ha,dayflower; [3],60%
same,pest or weed control at 62 g/ha,dayflower; [4],75%
same,pest or weed control at 125 g/ha,dayflower; [5],90%
same,pest or weed control at 250 g/ha,dayflower; [6],100%
same,pest or weed control at 16 g/ha,dayflower; [7],50%
